Source: patent publication EP0155454A1, “Use of pirenzepine, its salts or medicaments containing pirenzepine for the treatment of colon disorders” (Dr. Karl Thomae GmbH, priority 1984, dated 1985)
Structures can show the parent of a compound that is named as a salt. Where two headings read alike, the source gives them in different places.

How the values were obtained:
Colon irritabile = test: Double-blind cross-over clinical study versus placebo in patients with Colon irritabile; format: in vivo, Patienten; settings: for symptomfrei oder gebessert: 2 x 25 mg/Tag, 2 weeks per period, 30 Patienten
Excerpt: Bei klinischen Untersuchungen an 30 Patienten mit dem angegebenen Beschwerdebild Colon irritabile, wobei sich trotz umfangreicher diagnostischer Maßnahmen bei keinem der Patienten ein pathologischer Befund ergab, wurde Pirenzepin-dihydrochloridmonohydrat zum Einsatz gebracht. Da es für einen möglichen Therapieerfolg bei der geschilderten Indikation keinen objektivierbaren Parameter gibt, wurde jeder Patient in Doppelblind-cross over-Technik entweder mit Pirenzepin oder mit Placebo behandelt. Die Dosierung betrug 2 x 25 mg/Tag. Der Versuchsplan ermöglichte also bei jedem Patienten einen zweimal 2-wöchigen Beobachtungszeitraum. Die geprüften Parameter waren Obstipation, Diarrhoe, Schafkotstuhl, wechselnde Stühle und Schleimabsonderung. Die Beurteilung der therapeutischen Wirkung erfolgte vor Beginn der Behandlung und nach jedem einzelnen Versuchsabschnitt. Jeder Patient erhielt einen weitgefächerten Score, um seine subjektiven Eindrücke festzuhalten. Diese Angaben wurden ausgewertet, wobei die generalisierten Befunde bezüglich der Einzelsymptomatik in der nachstehenden Tabelle aufgeführt sind: […]

Darmmotilität = settings: cited from earlier work
Dickdarmmotorik [1] = settings: in vivo; cited from earlier work
Dickdarmmotorik [2] = test: Neostigmine-stimulated colon motility in healthy volunteers, acute intravenous pirenzepine; format: in vivo, freiwilligen Probanden
Excerpt: Pirenzepin löst einen krankhaften Spasmus im Darmtrakt ohne den Darm zu lähmen. Um dieses zu beweisen, bzw. um zu überprüfen, ob Pirenzepin anders als Atropin die gestörten motorischen Verhältnisse zu beeinflussen in der Lage ist und sich damit von Anticholinergika, Atropin oder Atropinderivaten unterscheidet, wurde die Dickdarmmotorik bei freiwilligen Probanden mit Neostigmin stimuliert und im Akutversuch Pirenzepin intravenös in therapeutischen Dosen verabreicht. In einer zweiten Serie wurden die Druck- und Motorikverhältnisse bei Patienten mit Colon irritabile vor und nach einer oralen Therapie mit Pirenzepin geprüft. Die dabei erzielten Ergebnisse lassen sich wie folgt zusammenfassen: Im Vergleich zur basalen Untersuchungsperiode konnte unter Neostigminstimulation an gesunden Testpersonen eine signifikante Zunahme der Druckamplitude um 21 %, der Kontraktionsdauer um 76 % und ein Anstieg des Motilitätsindex um 82 % beobachtet werden.

[3] = intravenös, therapeutic doses, after Neostigmin stimulation

Compound `CN1CCN(CC(=O)N2c3ccccc3C(=O)Nc3cccnc32)CC1` [Gastrozepin, 5,11-Dihydro-11 [(4-methyl-piperazin-1-yl)acetyl]-6H-pyrido [2,3-b] [1,4] benzodiazpin-6-on-dihydrochloridmonohydrat] has a symptomfrei oder gebessert (Colon irritabile; Symptom Diarrhoe) of 84%, a symptomfrei oder gebessert (Colon irritabile; Symptom Obstipation) of 72% and a symptomfrei oder gebessert (Colon irritabile; Symptom Schafkotstuhl) of 80%. It also gave a symptomfrei oder gebessert (Colon irritabile; Symptom Schleimabsonderung) of 83% and a symptomfrei oder gebessert (Colon irritabile; Symptom Wechselnde Stühle) of 89%.
For `CN1C2CCC1CC(OC(=O)C(CO)c1ccccc1)C2` (racemic) [Atropin], the “Verminderung der Darmmotilität” value (Darmmotilität; in vivo) is given as “eine Verminderung der Darmmotilität bewirkt” and the “propulsive motorische Kontraktionen” value (Dickdarmmotorik [1]) is given as “zum Erliegen bringt”.
In the case of `CN1CCN(CC(=O)N2c3ccccc3C(=O)Nc3cccnc32)CC1` [Pirenzepin, 5,11-Dihydro-11-[(4-methyl-piperazin-1-yl)-acetyl)-6H-pyrido [2,3-b] [1,4] benzodiazepin-6-on], the “Verminderung der Darmmotilität” value (Darmmotilität; therapeutische Höchstdosen) is given as “nicht sichtbar”, the “Unterschiede zwischen der Placebogruppe und der Verumgruppe” value (Colon irritabile; all tested parameters) is given as “signifikante bis hochsignifikante Unterschieden zugunsten von Pirenzepin” and the “Wirksamkeit in der Indikation Colon irritabile” value (Colon irritabile; overall assessment) is given as “sehr gut wirksam”. For the same compound, the “Abnahme der Druckamplitude” value (Dickdarmmotorik [2]; [3]) was “bis zum Ausgangsniveau”, the “Abnahme der Kontraktionsdauer” value (Dickdarmmotorik [2]; [3]) was “bis zum Ausgangsniveau” and the “Abnahme der propulsiven Kontraktionen” value (Dickdarmmotorik [2]; [3]) was “nicht zu registrieren”. The “Abnahme des Motilitätsindex” value (Dickdarmmotorik [2]; [3]) was “bis zum Ausgangsniveau” and the “Neostigmin-induzierte segmentale Kolonkontraktionen” value (Dickdarmmotorik [2]; summary statement) was “vermindert”.
In the case of `CN(C)C(=O)Oc1cccc([N+](C)(C)C)c1` [Neostigmin], the “Anstieg des Motilitätsindex” value (Dickdarmmotorik [2]; in vivo) is reported as 82%, the “Zunahme der Druckamplitude” value (Dickdarmmotorik [2]; in vivo) is reported as 21% and the “Zunahme der Kontraktionsdauer” value (Dickdarmmotorik [2]; in vivo) is reported as 76%.
